Measurements reported in US9826766B2 (priority 2012, dated 2017).

What was measured:
Conditions in all cases: mouse, in vivo
[1] = tested on: enterotoxinogenic strain of Clostridium perfringens; set-up: species or system axenic C3H/He mice
[2] = tested on: enterotoxinogenic strain of Clostridium perfringens; set-up: species or system axenic C3H/He mice; remark: listed apart in the source
[3] = tested on: enterotoxinogenic strain of Clostridium perfringens

Question: With OC[C@H]1O[C@@H](O[C@H]2[C@H](O)[C@@H](O)C(O)O[C@@H]2CO)[C@H](O)[C@@H](O)[C@H]1O (some centres unmarked) [Lactose] as the compound, how does the “Count (log CFU/g of feces) of Clostridium perfringens” value [1] read?
Answer: Mice dead or dying

Question: And the “Clostridium perfringens count, Blood” value [2]?
Answer: 2.3 log CFU/g

Question: What about the “Clostridium perfringens count, Cecum” value [2] of the same compound?
Answer: 5.5 ± 0.8 log CFU/g

Question: What about the “Clostridium perfringens count, Colon” value [2] of the same compound?
Answer: 6.6 ± 0.1 log CFU/g

Question: What about the “Clostridium perfringens count, Ileum” value [2] of the same compound?
Answer: 3.4 ± 0.8 log CFU/g

Question: What about the “Clostridium perfringens count, Kidney” value [2] of the same compound?
Answer: 3.0 log CFU/g

Question: And the “Clostridium perfringens count, Liver” value [2]?
Answer: 4.4 log CFU/g

Question: What about the “Clostridium perfringens count, Spleen” value [2] of the same compound?
Answer: 4.2 log CFU/g

Question: What about the “bacterial translocation, in words” value [2] of the same compound?
Answer: promotes bacterial translocation

Question: And the “colonization of the intestine vs control mice, in words” value [2]?
Answer: weak colonization of the intestine

Question: What about the mice died [3] of the same compound?
Answer: 100%
